One compound from patent publication US11884659B1, “1-cyclopropyl-6-fluoro-4-oxo-7-(4-((5-(quinolin-2-ylmethyleneamino)-2-thioxo-1,3,4- thiadiazol-3(2H)-yl)methyl) piperazin-1-yl)-1,4-dihydroquinoline-3-carboxylic acid as an anti-inflammatory compound” (KING FAISAL UNIVERSITY, priority 2023, dated 2024) can be followed below.

One data set addresses BSA (Bos taurus, UniProt P02769). Briefly: Bovine Serum Albumin Assay (BSA), inhibition of heat-induced protein denaturation. The settings on record: 20, 40, 60, 80 and 100 μg/mL; 0.4% w/v BSA, pH 6.4, 72° C. for 10 minutes; turbidity at 660 nm. The procedure: Bovine Serum Albumin Assay (BSA)
In vitro-inflammatory activities of the tested samples were determined using a modified method of the BSA assay reported by Williams et al. BSA solution (0.4%, w/v) was prepared in Tris Buffered Saline. The pH was adjusted to 6.4 with glacial acetic acid. Different dilutions of 20, 40, 60, 80, and 100 μg/mL of 1-cyclopropyl-6-fluoro-4-oxo-7-(4-((5-(quinolin-2-ylmethyleneamino)-2-thioxo-1,3,4-thiadiazol-3(2H)-yl)methyl)piperazin-1-yl)-1,4-dihydroquinoline-3-carboxylic acid (IV) the stock solutions were added to test tubes containing 1 mL of 0.4%, w/v BSA buffer solution. Both negative (solvent) and positive (aspirin) controls were assayed in a similar manner. The solutions were then heated in a water bath at 72° C. for 10 minutes and cooled for 20 minutes under laboratory conditions. The turbidity of the solutions (level of protein precipitation) was measured at 660 nm in Spectrophotometer (V-770 UV-Visible/NIR Spectrophotometer). The percentage inhibition of precipitation (protein denaturation) was determined relative to the negative control using the following equation:
[formula] [formula] Anti-Inflammatory Activity

BSA, sequence (P02769 25-607): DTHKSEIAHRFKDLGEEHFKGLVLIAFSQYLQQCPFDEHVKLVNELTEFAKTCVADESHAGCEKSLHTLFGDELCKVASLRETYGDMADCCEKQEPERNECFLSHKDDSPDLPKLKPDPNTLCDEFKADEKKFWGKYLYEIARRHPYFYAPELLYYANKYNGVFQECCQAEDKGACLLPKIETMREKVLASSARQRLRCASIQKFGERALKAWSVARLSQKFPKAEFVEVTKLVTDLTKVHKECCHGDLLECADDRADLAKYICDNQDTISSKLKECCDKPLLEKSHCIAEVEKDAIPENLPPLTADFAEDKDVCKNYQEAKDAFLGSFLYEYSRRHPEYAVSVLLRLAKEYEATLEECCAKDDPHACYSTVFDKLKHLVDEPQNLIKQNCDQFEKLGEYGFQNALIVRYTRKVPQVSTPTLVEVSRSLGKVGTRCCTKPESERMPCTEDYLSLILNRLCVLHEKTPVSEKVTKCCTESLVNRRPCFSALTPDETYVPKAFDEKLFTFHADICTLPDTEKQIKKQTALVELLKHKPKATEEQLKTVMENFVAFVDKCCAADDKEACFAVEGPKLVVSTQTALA

In general, melting point refers to the temperature, or range, at which the solid turns liquid. Compound `O=C(O)c1cn(C2CC2)c2cc(N3CCN(Cn4nc(/N=C/c5ccc6ccccc6n5)sc4=S)CC3)c(F)cc2c1=O` [IV, 1-cyclopropyl-6-fluoro-4-oxo-7-(4-((5-(quinolin-2-ylmethyleneamino)-2-thioxo-1,3,4-thiadiazol-3(2H)-yl)methyl)piperazin-1-yl)-1,4-dihydroquinoline-3-carboxylic acid] yielded a melting point of 232 to 235 °C. For the same compound, on BSA, the “in vitro anti-inflammatory activity (inhibition of protein denaturation)” value is “considerable anti-inflammatory effect”.
